According to US12303518B2, “System for providing birth control” (The Population Council, Inc., priority 2019, dated 2025):
Read-outs that look alike come from different tables or passages of the source. Values belong to the compound of their own block, whether it stands above or below them.

How the values were obtained:
[1] = Pharmacokinetics of the vaginal system in 39 women over up to 13 product-use cycles; type: in vivo; design: concentration or dose not given beside the values; details: female, human, serum
Experimental: The pharmacokinetics (PK) of the vaginal system described herein were determined in 39 women who used the system for up to 13 product-use cycles. […] Over subsequent product-use cycles, the peak serum concentrations of SA and EE declined. Serum concentration-time profiles of SA and EE for product-pse cycles 1, 3, and 13 of system use are provided in FIG. 1 and FIG. 2 with PK parameters summarized in Table 8 and Table 9.

[2] = PK study in females with BMI<25 vs BMI>25 kg/m^2; type: in vivo, human; details: 18 females BMI<25 vs 21 females BMI>25 kg/m^2
From the text: The vaginal system described herein has not been adequately evaluated in females with a body mass index of >29 kg/m2. […] Higher body weight associates with lower systemic exposure of SA and EE. In a PK study conducted in 18 females with BMI<25 (16.89-24.34) kg/m^2 and 21 females with BMI>25 (25.15-37.46) kg/m^2, up to 16% and 33% decreases in the systemic exposure (AUC0-21day) of SA and EE, respectively, were observed between the two BMI groups.

[3] = Recoverable SA and EE after storage; type: physicochemical; details: for amount recoverable from the vaginal system: 24 months of storage at 25° C. and 60% relative humidity
Experimental: This was quite surprising as a similar trend was not observed during long-term stability studies on the cores before assembly.
• Diluent: methanol/water 58/42 v/v • Dried NES and EE before weighing (100-105° C. 3 h) • EE stock solution: Dissolved 25.0 mg of EE and diluted to 250.0 mL with methanol (duplicates, EE1 and EE2) • NES stock solution: Dissolved 50.0 mg of NES and diluted to 100.0 mL with methanol (duplicates, NES1 and NES2) • Standard solutions: • S1: Diluted 5.0 mL of NES1 and 4.0 mL of EE1 to 50.0 mL with diluent • S2: Diluted 6.0 mL of NES2 and 5.0 mL of EE2 to 50.0 mL with diluent • S3: Diluted 8.0 mL of NES1 and 7.0 mL of EE1 to 50.0 mL with diluent • S4: Diluted 10.0 mL of NES2 and 9.0 mL of EE2 to 50.0 mL with diluent • System suitability solution (SST solution): Diluted 5.0 mL acetone+7.0 mL NES1+6.0 mL EE1 to 50.0 mL with diluent. Extraction Procedure: • Rings were cut into 8 pieces and each piece was divided lengthwise then transferred to an Erlenmeyer flask. • 140 mL of acetone (weight of flask was noted before and after acetone addition) was added to the flask. […] Liquid Chromatography Column • analytical column: Discovery C8, 5 μm, 150×4.6 mm (Supelco) • pre-column: Supelguard, Discovery C8, 5 μm, 20×4.0 mm (Supelco) • stationary phase: endcapped C8 (5 μm particle size) USP L7 • temperature: 30° C. • Mobile phase: methanol/water 58/42, isocratic elution • Flow rate: 1.2 mL/min • Detection (assay): NES UV 240 nm, EE UV 280 nm • Detection (identity): PDA (photodiode array detector) scanning 220-310 nm, NES 240 nm, EE 280 nm • Injection: 20 μL • Run time: 15 min • System suitability: SST solution • Area precision (n=5): RSD (%)≤2.0 • Peak tailing (T): 0.8≤T≤1.5 • Blank injections: No interfering peaks • Retention times: EE approximately 7 min and NES approximately 9 min • Results Assay: Report the average value of three different rings and express as mg EE/ring and mg NES/ring. • Results Content uniformity: Calculate the average value of ten different rings. […]

[4] = tested on: SHBG; test: Effect on serum concentrations of SHBG; details: in vivo
[5] = Drug-drug interaction study with vaginal miconazole formulations; type: in vivo, human; details: concurrent water-based vaginal miconazole cream
From the text: However, the use of either the 1 day or the 3-day oil-based miconazole suppository was associated with an overall increase in exposure up to 67% for EE and 32% for SA. Considering the potential long-term effect on vaginal system performance, concurrent use of oil-based vaginal suppositories should not occur with the system's use. If there is a need to treat a vaginal condition, water-based vaginal cream or oral therapy may be used concurrently with the vaginal system.

[6] = in vivo; cited from earlier work
[7] = Solubility in solvents (descriptive); type: physicochemical; details: USP classification
[8] = target: T1, sex hormone-binding globulin (SHBG) (Homo sapiens, UniProt P04278); test: Binding to sex hormone-binding globulin
T1 sequence (P04278 30-402): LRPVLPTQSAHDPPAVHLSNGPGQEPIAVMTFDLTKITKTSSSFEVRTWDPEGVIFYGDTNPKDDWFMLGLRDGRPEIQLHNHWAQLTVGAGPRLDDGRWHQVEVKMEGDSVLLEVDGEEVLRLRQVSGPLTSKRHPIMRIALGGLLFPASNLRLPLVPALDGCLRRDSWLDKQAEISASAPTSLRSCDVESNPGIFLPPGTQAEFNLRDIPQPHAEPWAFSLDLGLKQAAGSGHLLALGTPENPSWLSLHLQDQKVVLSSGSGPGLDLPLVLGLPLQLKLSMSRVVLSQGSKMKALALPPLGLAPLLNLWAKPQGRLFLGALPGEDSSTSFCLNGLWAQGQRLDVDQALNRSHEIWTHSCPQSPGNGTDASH

[9] = tested on: CYP enzymes; test: In vitro CYP inhibition/induction studies; type: in vitro ADME; details: therapeutic dose
[10] = tested on: Salmonella; test: Ames/Salmonella reverse mutation assay; type: cell-based
[11] = tested on: rats; test: Return to fertility study in rats with subdermal implants; type: in vivo, rat; details: 7 weeks after cessation of treatment
Experimental: A return to fertility study was conducted with segesterone acetate in rats, using subdermal implants releasing a dose approximately 25 times the anticipated daily vaginal human dose (based on body surface area).

[12] = tested on: mouse; test: In vivo mouse micronucleus test
[13] = tested on: Chinese hamster ovary cells; test: Chromosomal aberration assay; type: cell-based

AUC(0-t) ([1]; Cycle 1, mean (SD), read-out: AUC0−1 day): 2.1 ng·h/mL | AUC(0-t) ([1]; Cycle 1, mean (SD), read-out: AUC0−21day): 22.2 ng·h/mL | AUC(0-t) ([1]; Cycle 3, mean (SD), read-out: AUC0−1 day): 0.9 ng·h/mL | AUC(0-t) ([1]; Cycle 3, mean (SD), read-out: AUC0−21day): 14.7 ng·h/mL | AUC(0-t) ([1]; Cycle 13, mean (SD), read-out: AUC0−1 day): 0.7 ng·h/mL | AUC(0-t) ([1]; Cycle 13, mean (SD), read-out: AUC0−21day): 9.6 ng·h/mL | decrease in systemic exposure (AUC0-21day) between the two BMI groups [2]: ≤ 33% | amount recoverable from the vaginal system [3]: decreased in a time-dependent manner | change in exposure from the vaginal system [5]: no change in exposure
SMILES: C#C[C@]1(O)CC[C@H]2[C@@H]3CCc4cc(O)ccc4[C@H]3CC[C@@]21C [EE, 19-nor-17α-pregna-1,3,5(10)-trien-20-yne-3,17-diol]
amount recoverable from the core by extraction ([3]; cores before assembly, extended storage): full amount of EE was found to be recoverable | effect on serum concentrations of SHBG [4]: induces an increase in the serum concentrations of SHBG | excretion route [6]: excreted in the urine and feces as glucuronide and sulfate conjugates | primary metabolic route [6]: primarily metabolized by aromatic hydroxylation

SMILES: C=C1C[C@H]2[C@@H]3CCC4=CC(=O)CC[C@@H]4[C@H]3CC[C@]2(C)[C@@]1(OC(C)=O)C(C)=O [SA, 16-methylene-17α-acetoxy-19-nor-pregn-4-ene-3,20-dione]
solubility ([7]; acetone): freely soluble | solubility ([7]; ethyl acetate): soluble | solubility ([7]; methanol): soluble | solubility ([7]; n-hexane): slightly soluble | decrease in systemic exposure (AUC0-21day) between the two BMI groups [2]: up to 16% | amount recoverable from the vaginal system [3]: remained essentially constant | binding affinity for sex hormone-binding globulin (SHBG) [8]: negligible binding affinity | CYP enzyme inhibition or induction [9]: unlikely to inhibit or induce CYP enzymes | mutagenicity/clastogenicity [10]: neither mutagenic nor clastogenic | change in exposure from the vaginal system [5]: no change in exposure | effects on ovulation or litter parameters [11]: no adverse effects on ovulation or resulting litter parameters | mutagenicity/clastogenicity [12]: neither mutagenic nor clastogenic | mutagenicity/clastogenicity [13]: neither mutagenic nor clastogenic
